In article doi:10.1101/2021.10.07.463234v2 (biorxiv, 2021):
Counter-ions that a name gives are not always drawn. Peptide text beside a SMILES is read from it.

biological target: SARS-CoV-2 Mac1 (Severe acute respiratory syndrome coronavirus 2, UniProt P0DTD1); assay: biochemical; conditions: 100 µM; inhibitor

In order of falling “%inhibition” value:
1. CCn1cc(C(=O)O)c(=O)c2cc(F)c(N3CCNCC3)nc21 [Enoxacin]  29.69%
2. Cc1cccc([C@H](C)c2c[nH]cn2)c1C [Dexmedetomidine]  18.38%
3. CCC[C@@H]1C[C@@H](C(=O)N[C@@H]([C@H]2O[C@H](SC)[C@H](O)[C@@H](O)[C@H]2O)[C@@H](C)O)N(C)C1 [Lincomycin Hydrochloride Monohydrate]  16.9%
4. C[C@H](NCc1ccc(OCc2cccc(F)c2)cc1)C(N)=O [Safinamide Mesylate]  9.23%
5. CN(C)CC(c1ccc(O)cc1)C1(O)CCCCC1 (centres unmarked) [Desvenlafaxine]  6.836%
6. CCN(CC)CC(=O)Nc1c(C)cccc1C [Lidocaine hydrochloride]  4.808%
7. Clc1ccc(CCC(Cn2ccnc2)Sc2c(Cl)cccc2Cl)cc1 (centres unmarked) [Butoconazole nitrate]  4.358%
8. COc1c(N2C[C@@H]3CCCN[C@@H]3C2)c(F)cc2c(=O)c(C(=O)O)cn(C3CC3)c12 [Moxifloxacin HCl]  0%
9. Cc1cccc(C)c1NC(=O)C1CCCCN1C (centres unmarked) [Mepivacaine]  0%
10. CCCCc1nc(Cl)c(CO)n1Cc1ccc(-c2ccccc2-c2nnn[nH]2)cc1 [Losartan Potassium (DuP 753)]  0%

same assay, conditions: read-out: %inhibition

In order of falling inhibition at 100 µM:
1. COc1nc(N)nc2c1ncn2[C@@H]1O[C@H](CO)[C@@H](O)[C@@H]1O [Nelarabine]  50.5%
2. N/N=c1\[nH][nH]/c(=N\N)c2ccccc12 [Dihydralazine sulphate]  45.1%
3. CO[C@H]1/C=C/O[C@@]2(C)Oc3c(C)c(O)c4c(c3C2=O)C2=NC3(CCN(CC(C)C)CC3)NC2=C(NC(=O)/C(C)=C\C=C\[C@H](C)[C@H](O)[C@@H](C)[C@@H](O)[C@@H](C)[C@H](OC(C)=O)[C@@H]1C)C4=O [Rifabutin]  34.6%
4. Cn1nnc2c(C(N)=O)ncn2c1=O [Temozolomide]  34.1%
5. CC(=O)O[C@]1(C(C)=O)CC[C@H]2[C@@H]3C[C@H](C)C4=CC(=O)CC[C@]4(C)[C@H]3CC[C@@]21C [Medroxyprogesterone acetate]  26.1%
6. O=C1OC2(c3ccc(O)cc3Oc3cc(O)ccc32)c2ccccc21 [Fluorescein]  24.9%
7. CCN(CC)CCOCCOC(=O)C1(c2ccccc2)CCCC1 [Pentoxyverine Citrate]  24.6%
8. Cn1cnc2c(F)c(Nc3ccc(Br)cc3Cl)c(C(=O)NOCCO)cc21 [Selumetinib (AZD6244)]  24.4%
9. NC(=O)NO [Hydroxyurea]  20.8%
10. CSc1nc2cc(Cl)c(Oc3cccc(Cl)c3Cl)cc2[nH]1 [Triclabendazole]  20.5%
11. O=C(NC1CCN(CCCCC2(C(=O)NCC(F)(F)F)c3ccccc3-c3ccccc32)CC1)c1ccccc1-c1ccc(C(F)(F)F)cc1 [Lomitapide]  17.8%
12. O=C1OC(CN2CCOCC2)CN1/N=C/c1ccc([N+](=O)[O-])o1 (centres unmarked) [Furaltadone HCl]  15.8%
13. CN1c2cc(O)c(N=NC(N)=O)cc2CC1S(=O)(=O)O (centres unmarked) [Carbazochrome sodium sulfonate (AC-17)]  15.7%
14. O=C(O[C@H]1C[C@H]2CC[C@@H](C1)[N+]21CCCC1)C(O)(c1ccccc1)c1ccccc1 [Trospium chloride]  14.5%
15. CCCCOc1ccc(CC(=O)NO)cc1 [Bufexamac]  14.1%
16. COCC1=C(C(=O)OC(C)OC(=O)OC(C)C)N2C(=O)[C@@H](NC(=O)/C(=N\OC)c3csc(N)n3)[C@H]2SC1 (some centres unmarked) [Cefpodoxime proxetil]  13.2%
17. CCCC(CCC)C(N)=O [Valpromide]  13.2%
18. CC(=O)Oc1ccc(C(=C2CCCCC2)c2ccc(OC(C)=O)cc2)cc1 [Cyclofenil]  11.6%
19. O=C(c1ccc(F)cc1)C1CCN(CCn2c(=O)[nH]c3ccccc3c2=O)CC1 [Ketanserin]  11.6%
20. COc1ccc2c(O[C@@H]3C[C@H]4C(=O)N[C@]5(C(=O)NS(=O)(=O)C6CC6)C[C@H]5/C=C\CCCCN(C)C(=O)[C@@H]4C3)cc(-c3nc(C(C)C)cs3)nc2c1C [Simeprevir]  11.4%
21. O=P1(NCCCl)OCCCN1CCCl (centres unmarked) [Ifosfamide]  10.6%
22. NCCc1c[nH]c2ccc(O)cc12 [Serotonin HCl]  8.8%
23. CCCN1C[C@H](CSC)C[C@@H]2c3cccc4[nH]cc(c34)C[C@H]21 [Pergolide Mesylate]  7.58%
24. CCC(C)(C)c1ccc(CC(C)CN2C[C@@H](C)O[C@@H](C)C2)cc1 (some centres unmarked) [Amorolfine HCl]  6.98%
25. CC(C)(O)CNc1nc(Nc2ccnc(C(F)(F)F)c2)nc(-c2cccc(C(F)(F)F)n2)n1 [Enasidenib (AG-221)]  6.78%
26. CC(C)(Sc1cc(C(C)(C)C)c(O)c(C(C)(C)C)c1)Sc1cc(C(C)(C)C)c(O)c(C(C)(C)C)c1 [Probucol]  6.54%
27. OC[C@H]1O[C@@H](O[C@@H]2[C@@H](CO)OC(O)(CO)[C@H]2O)[C@H](O)[C@@H](O)[C@H]1O (mixture of isomers) [Lactulose]  5.37%
28. CC(C)/N=c1\cc2n(-c3ccc(Cl)cc3)c3ccccc3nc-2cc1Nc1ccc(Cl)cc1 [Clofazimine]  5.33%
29. C[C@]12CCC(=O)C=C1CC[C@@H]1[C@@H]2[C@@H](O)C[C@@]2(C)[C@H]1CC[C@]2(O)C(=O)CO [Hydrocortisone]  5.07%
30. O=C(O)COc1nn(Cc2ccccc2)c2ccccc12 [Bendazac]  3.85%
31. COC(=O)[C@@H]1CC2=CC(=O)CC[C@]2(C)[C@@]23O[C@@H]2C[C@@]2(C)[C@@H](CC[C@@]24CCC(=O)O4)[C@H]13 [Eplerenone]  3.58%
32. CC(=O)OCC(=O)[C@H]1CC[C@H]2[C@@H]3CCC4=CC(=O)CC[C@]4(C)[C@H]3CC[C@]12C [Deoxycorticosterone acetate]  3.46%
33. CC(C)(C)NCC(O)COc1cccc2c1CCC(=O)N2 (centres unmarked) [Carteolol HCl]  3.36%
34. OCc1cc(C(O)CNCCCCCCOCCCCc2ccccc2)ccc1O (centres unmarked) [Salmeterol]  3.12%
35. O=C(N/N=C/c1ccc([N+](=O)[O-])o1)c1ccc(O)cc1 [Nifuroxazide]  0.953%
36. Cc1c(O)cccc1C(=O)N[C@@H](CSc1ccccc1)[C@H](O)CN1C[C@H]2CCCC[C@H]2C[C@H]1C(=O)NC(C)(C)C [Nelfinavir Mesylate]  0.155%
37. NC(=O)c1ncn([C@@H]2O[C@H](CO)[C@@H](O)[C@H]2O)n1 [Ribavirin]  0.0871%
38. CCn1cc(C(=O)O)c(=O)c2cnc(N3CCNCC3)nc21 [Pipemidic acid]  0%
39. Cc1cn[nH]c1 [Fomepizole]  0%
40. NS(=O)(=O)c1cc(C(=O)O)c(NCc2ccco2)cc1Cl [Furosemide]  0%
41. CC(=O)N[C@@H](CS)C(=O)O [Acetylcysteine]  0%
42. C[C@H]1[C@@H](O)O[C@@H]2O[C@@]3(C)CC[C@H]4[C@H](C)CC[C@@H]1[C@@]24OO3 [Dihydroartemisinin (DHA)]  0%
43. C#CCN[C@@H]1CCc2ccccc21 [Rasagiline Mesylate]  0%
44. O=c1ccc2ccc(OCCCCN3CCN(c4cccc5sccc45)CC3)cc2[nH]1 [Brexpiprazole]  0%
45. Cc1c(C(=O)Nc2ccc(N3C[C@@H](C)O[C@@H](C)C3)nc2)cccc1-c1ccc(OC(F)(F)F)cc1 [Sonidegib (Erismodegib, NVP-LDE225)]  0%
46. Cc1ccc(NC(=O)C2(c3ccc4c(c3)OC(F)(F)O4)CC2)nc1-c1cccc(C(=O)O)c1 [VX-809 (Lumacaftor)]  0%
47. NC(=O)CC[C@H](N)C(=O)O [L-Glutamine]  0%
48. Cc1c(Nc2ncccc2C(=O)O)cccc1C(F)(F)F [Flunixin Meglumin]  0%
49. CCS(=O)(=O)CCn1c([N+](=O)[O-])cnc1C [Tinidazole]  0%
50. C#C[C@]1(O)CC[C@H]2[C@@H]3CCC4=CC(=O)CC[C@@H]4[C@H]3CC[C@@]21C [Norethindrone]  0%
51. N=C(N)c1ccc(OCCCCCOc2ccc(C(=N)N)cc2)cc1 [Pentamidine isethionate]  0%
52. COC(=O)[C@H](Cc1ccccc1)NC(=O)[C@@H](N)CC(=O)O [Aspartame] (H-Asp-Phe-OMe)  0%
53. CCCc1nc(C(C)(C)O)c(C(=O)O)n1Cc1ccc(-c2ccccc2-c2nnn[nH]2)cc1 [Olmesartan]  0%
54. N[C@@H](CCC(=O)O)C(=O)O [L-Glutamic acid monosodium salt]  0%
55. CC1(C)S[C@@H]2[C@H](NC(=O)[C@H](NC(=O)N3CCNC3=O)c3ccccc3)C(=O)N2[C@H]1C(=O)O [Azlocillin sodium salt]  0%
56. C[N+]1(C)CCC(OC(=O)C(O)(c2ccccc2)C2CCCC2)C1 (centres unmarked) [Glycopyrrolate]  0%
57. NCCCNCCSP(=O)(O)O [Amifostine]  0%
58. CNC(=O)c1ccc2cc([C@@]3(O)CCn4cncc43)ccc2c1 [TAK-700 (Orteronel)]  0%
59. CC(C)CN(C[C@@H](O)[C@H](Cc1ccccc1)NC(=O)O[C@H]1CO[C@H]2OCC[C@H]21)S(=O)(=O)c1ccc(N)cc1 [Darunavir Ethanolate]  0%
60. CCCC[N+]1(C)[C@@H]2C[C@@H](OC(=O)[C@H](CO)c3ccccc3)C[C@H]1[C@@H]1O[C@@H]12 (some centres unmarked) [Butylscopolamine Bromide]  0%
61. C#C[C@]1(O)CC[C@H]2[C@@H]3CCC4=CCCC[C@@H]4[C@H]3C(=C)C[C@@]21CC [Desogestrel]  0%
62. C[C@@H]1C/C=C/C=C/C=C/C=C/[C@H](O[C@@H]2O[C@H](C)[C@@H](O)[C@H](N)[C@@H]2O)C[C@@H]2O[C@](O)(C[C@@H](O)C[C@H]3O[C@@H]3/C=C/C(=O)O1)C[C@H](O)[C@H]2C(=O)O [Natamycin]  0%
63. C[C@H](O)C(=O)Nc1c(I)c(C(=O)NC(CO)CO)c(I)c(C(=O)NC(CO)CO)c1I [Iopamidol]  0%
64. O=C(O)[C@H]1O[C@H](O)[C@H](O)[C@@H](O)[C@@H]1O [Sodium Gluconate]  0%
